What was measured:
[1] = target: Kappa-type opioid receptor (Homo sapiens, UniProt P41145); test: Displacement of [3H]U69593 from kappa opioid receptor
[2] = target: Kappa-type opioid receptor (Cavia porcellus, UniProt P41144); test: Displacement of [3H]U69593 from kappa opioid receptor in guinea pig brain membranes after 150 mins by scintillation counting; type: cell membranes, Membrane
[3] = target: Sigma non-opioid intracellular receptor 1 (Cavia porcellus, UniProt Q60492); test: Displacement of [3H]-(+)-pentazocine from sigma 1 receptor in guinea pig brain membranes; type: cell membranes, Membrane
[4] = target: Delta-type opioid receptor (Rattus norvegicus, UniProt P33533); test: Displacement of [3H]DPDPE from delta opioid receptor in rat brain membranes; type: cell membranes
Mu-type opioid receptor = Mu-type opioid receptor (Cavia porcellus, UniProt P97266); test: Displacement of [3H]DAMGO from mu opioid receptor in guinea pig brain membranes; type: cell membranes, Membrane
[5] = Displacement of [3H]di-o-toylguanidine from sigma 2 receptor in rat liver homogenates; type: tissue-based

Sequence of Kappa-type opioid receptor (Cavia porcellus, UniProt P41144) (P41144 whole entry): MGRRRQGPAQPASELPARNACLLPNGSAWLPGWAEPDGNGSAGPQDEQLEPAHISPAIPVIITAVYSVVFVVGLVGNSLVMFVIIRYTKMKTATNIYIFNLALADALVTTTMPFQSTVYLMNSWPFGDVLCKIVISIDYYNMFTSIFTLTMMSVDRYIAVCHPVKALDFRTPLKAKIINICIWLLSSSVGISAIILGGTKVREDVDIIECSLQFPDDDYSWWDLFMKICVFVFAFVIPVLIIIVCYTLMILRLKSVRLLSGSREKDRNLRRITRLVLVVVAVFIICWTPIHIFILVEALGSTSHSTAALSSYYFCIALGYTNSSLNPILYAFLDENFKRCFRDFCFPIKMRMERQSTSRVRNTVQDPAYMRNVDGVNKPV
Sequence of Sigma non-opioid intracellular receptor 1 (Q60492 whole entry): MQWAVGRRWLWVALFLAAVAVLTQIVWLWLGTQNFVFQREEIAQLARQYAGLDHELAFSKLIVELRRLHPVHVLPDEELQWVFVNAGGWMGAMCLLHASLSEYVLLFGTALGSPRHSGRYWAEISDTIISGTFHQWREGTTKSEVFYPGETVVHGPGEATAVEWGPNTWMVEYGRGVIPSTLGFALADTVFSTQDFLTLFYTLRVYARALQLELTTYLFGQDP
Sequence of Mu-type opioid receptor (P97266 whole entry): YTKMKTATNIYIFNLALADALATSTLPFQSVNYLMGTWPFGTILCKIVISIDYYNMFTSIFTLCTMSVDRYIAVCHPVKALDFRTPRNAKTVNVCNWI
Sequence of Delta-type opioid receptor (P33533 whole entry): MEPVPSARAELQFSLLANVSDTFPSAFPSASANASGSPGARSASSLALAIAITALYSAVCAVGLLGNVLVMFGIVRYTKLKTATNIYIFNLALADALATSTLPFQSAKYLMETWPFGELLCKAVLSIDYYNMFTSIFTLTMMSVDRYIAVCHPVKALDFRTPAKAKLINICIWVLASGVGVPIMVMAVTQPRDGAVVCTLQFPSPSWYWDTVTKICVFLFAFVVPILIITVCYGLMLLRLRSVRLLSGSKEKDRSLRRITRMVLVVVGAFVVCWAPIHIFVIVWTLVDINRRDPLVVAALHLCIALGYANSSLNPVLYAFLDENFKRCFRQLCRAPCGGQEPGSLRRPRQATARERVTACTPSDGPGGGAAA
Sequence of Kappa-type opioid receptor (Homo sapiens, UniProt P41145) (P41145 whole entry): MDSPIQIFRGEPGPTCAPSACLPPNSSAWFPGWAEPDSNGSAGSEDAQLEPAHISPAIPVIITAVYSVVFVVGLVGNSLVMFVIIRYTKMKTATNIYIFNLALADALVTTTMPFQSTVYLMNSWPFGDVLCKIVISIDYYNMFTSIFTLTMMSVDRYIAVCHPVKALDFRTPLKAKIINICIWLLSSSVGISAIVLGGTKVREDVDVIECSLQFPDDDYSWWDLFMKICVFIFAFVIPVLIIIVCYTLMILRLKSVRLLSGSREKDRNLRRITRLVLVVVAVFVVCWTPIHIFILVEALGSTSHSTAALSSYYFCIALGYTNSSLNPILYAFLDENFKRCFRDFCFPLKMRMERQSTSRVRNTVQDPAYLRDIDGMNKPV

COC(=O)N1CCN(C(=O)Cc2ccc(Cl)c(Cl)c2)[C@@H]([C@@H](C)N2CCCC2)C1
Ki [1]: 0.31 nM

COC(=O)N1CCN(C(=O)Cc2ccc(Cl)c(Cl)c2)[C@H](CN2CCCC2)C1
Ki [1]: 0.45 nM

COC(=O)N1CC2C(N3CCCC3)CCCC1CN2C(=O)Cc1ccc(Cl)c(Cl)c1 (racemic)
Ki [2]: 333 nM | Ki [3]: 452 nM | Ki [4]: > 1000 nM | Ki (Mu-type opioid receptor): > 1000 nM

COc1ccc(CN2CC3CCCC(N4CCCC4)C2CN3Cc2ccccc2)cc1 (racemic)
Ki [5]: > 1000 nM | Ki [3]: 531 nM

O=C(Cc1ccc(Cl)c(Cl)c1)N1CC2CCCC(N3CCCC3)C1CN2Cc1ccccc1 (racemic; 14)
Ki [2]: 378 nM | Ki [5]: > 1000 nM | Ki [3]: 221 nM | Ki [4]: 150 nM | Ki (Mu-type opioid receptor): > 1000 nM

O=C(Cc1ccc(Cl)c(Cl)c1)N1CC2CCCC(N3CCCC3)C1CN2Cc1ccccc1 (racemic; 26)
Ki [2]: 314 nM | Ki [3]: 175 nM | Ki [4]: 324 nM | Ki (Mu-type opioid receptor): > 1000 nM

O=C(Cc1ccc(Cl)c(Cl)c1)N1CCN2CC[C@@H](N3CCCC3)[C@H]1C2 (relative stereo)
Ki [2]: > 1000 nM

O=C(Cc1ccc(Cl)c(Cl)c1)N1CCN2CC[C@H](N3CCCC3)[C@H]1C2 (relative stereo)
Ki [2]: 73 nM

COC(=O)N1CC2C(N3CCCC3)CCCC1CN2C(=O)Cc1ccc(Cl)c(Cl)c1 (stereo in doubt; 9)
Ki [2]: 65 nM | Ki [5]: > 1000 nM | Ki [3]: > 1000 nM | Ki [4]: > 1000 nM | Ki (Mu-type opioid receptor): > 1000 nM

COc1ccc(CN2CC3CCCC(N4CCCC4)C2CN3Cc2ccccc2)cc1 (stereo in doubt; 25)
Ki [5]: 203 nM | Ki [3]: 238 nM

CC(C)=CCN1CC[C@]2(C)c3cc(O)ccc3C[C@H]1[C@H]2C [(+)-PENTAZOCINE]
Ki [5]: 58 nM

Reference: ChEMBL document CHEMBL1781976, “Synthesis of 7,9-diazabicyclo[4.2.2]decanes as conformationally restricted κ receptor agonists: fine tuning of the dihedral angle of the ethylenediamine pharmacophore” (Eur J Med Chem, 2011)
